Tested on: NOMO1
Experiment: cell viability relative to DMSO control; higher = less cytotoxic
Settings: 48 h
Method in brief: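 Library compounds in DMSO were pin-dosed into 1536-well plates (5 μl) holding NOMO1 or SEM (500 cells/well) or P12-Ichikawa (1000 cells/well) leukemia cells, across an 11-point threefold series of 47 μM to 0.79 nM. Each cell line had been adapted for at least four passages in each medium. CellTiter-Glo One luminescence was read after 48 h at 37°C. Viability is the per-plate percentage relative to DMSO wells, with cell-free wells as background.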

[1] = HPLM + 10% dialyzed FBS, 0.000781 µM
[2] = HPLM + 10% dialyzed FBS, 0.00234 µM
[3] = HPLM + 10% dialyzed FBS, 0.00702 µM
[4] = HPLM + 10% dialyzed FBS, 0.0211 µM
[5] = HPLM + 10% dialyzed FBS, 0.0632 µM
[6] = HPLM + 10% dialyzed FBS, 0.19 µM
[7] = HPLM + 10% dialyzed FBS, 0.569 µM
[8] = HPLM + 10% dialyzed FBS, 1.71 µM
[9] = HPLM + 10% dialyzed FBS, 5.12 µM
[10] = HPLM + 10% dialyzed FBS, 15.4 µM
[11] = HPLM + 10% dialyzed FBS, 46.1 µM
[12] = RPMI 5 mM glucose + 10% FBS, 0.000781 µM
[13] = RPMI 5 mM glucose + 10% FBS, 0.00234 µM
[14] = RPMI 5 mM glucose + 10% FBS, 0.00702 µM
[15] = RPMI 5 mM glucose + 10% FBS, 0.0211 µM
[16] = RPMI 5 mM glucose + 10% FBS, 0.0632 µM
[17] = RPMI 5 mM glucose + 10% FBS, 0.19 µM
[18] = RPMI 5 mM glucose + 10% FBS, 0.569 µM
[19] = RPMI 5 mM glucose + 10% FBS, 1.71 µM
[20] = RPMI 5 mM glucose + 10% FBS, 5.12 µM
[21] = RPMI 5 mM glucose + 10% FBS, 15.4 µM
[22] = RPMI 5 mM glucose + 10% FBS, 46.1 µM
[23] = RPMI 5 mM glucose + 10% dialyzed FBS, 0.000781 µM
[24] = RPMI 5 mM glucose + 10% dialyzed FBS, 0.00234 µM
[25] = RPMI 5 mM glucose + 10% dialyzed FBS, 0.00702 µM
[26] = RPMI 5 mM glucose + 10% dialyzed FBS, 0.0211 µM
[27] = RPMI 5 mM glucose + 10% dialyzed FBS, 0.0632 µM
[28] = RPMI 5 mM glucose + 10% dialyzed FBS, 0.19 µM
[29] = RPMI 5 mM glucose + 10% dialyzed FBS, 0.569 µM
[30] = RPMI 5 mM glucose + 10% dialyzed FBS, 1.71 µM
[31] = RPMI 5 mM glucose + 10% dialyzed FBS, 5.12 µM
[32] = RPMI 5 mM glucose + 10% dialyzed FBS, 15.4 µM
[33] = RPMI 5 mM glucose + 10% dialyzed FBS, 46.1 µM

Row | Structure (SMILES) | cell viability [1] | cell viability [2] | cell viability [3] | cell viability [4] | cell viability [5] | cell viability [6] | cell viability [7] | cell viability [8] | cell viability [9] | cell viability [10] | cell viability [11] | cell viability [12] | cell viability [13] | cell viability [14] | cell viability [15] | cell viability [16] | cell viability [17] | cell viability [18] | cell viability [19] | cell viability [20] | cell viability [21] | cell viability [22] | cell viability [23] | cell viability [24] | cell viability [25] | cell viability [26] | cell viability [27] | cell viability [28] | cell viability [29] | cell viability [30] | cell viability [31] | cell viability [32] | cell viability [33]
1 | CC1=C(/C=C/C(C)=C/C=C/C(C)=C/C=C/C=C(C)/C=C/C=C(C)/C=C/C2=C(C)CCCC2(C)C)C(C)(C)CCC1 | 115% | 110% | 108% | 104% | 104% | 107% | 100% | 98.2% | 118% | 92.9% | 98.2% | 119% | 112% | 110% | 111% | 108% | 108% | 99.3% | 101% | 113% | 102% | 95.5% | 101% | 113% | 129% | 108% | 112% | 111% | 107% | 117% | 114% | 95.1% | 90.3%
2 | CCCCCOC(=O)NC\1=N\C(=O)N(\C=C1F)[C@@H]2O[C@H](C)[C@@H](O)[C@H]2O | 114% | 111% | 97% | 99.7% | 95.6% | 106% | 92.9% | 98.7% | 93.8% | 72.8% | 81.4% | 90.8% | 92.6% | 97.9% | 90.8% | 90.7% | 102% | 91.2% | 87.9% | 86.4% | 85% | 83.3% | 99.2% | 105% | 106% | 105% | 103% | 99.4% | 101% | 109% | 92% | 73.8% | 92.5%
3 | NC(=O)c1cnc(N[C@@H]2CCCC[C@@H]2N)nc1Nc1cccc(-n2nccn2)c1 | 118% | 120% | 123% | 153% | 140% | 141% | 154% | 116% | 138% | 110% | 75% |  |  |  |  |  |  |  |  |  |  |  |  |  |  |  |  |  |  |  |  |  | 
4 | OC(=O)C1=CC=C(NC2=NC3=C(C\N=C(/C4=CC(=CC=C34)Cl)C5=C(F)C=CC=C5F)C=N2)C=C1 | 87.2% | 96.6% | 104% | 122% | 97.9% | 103% | 87.6% | 45.2% | 44% | 59.1% | 72% | 81.9% | 96.8% | 80% | 91.3% | 90.4% | 79.9% | 82.3% | 32.8% | 37.8% | 56.4% | 56.4% | 93.2% | 95.7% | 89.2% | 94.1% | 89.8% | 97.8% | 77.3% | 35% | 38.8% | 55.9% | 61.4%
5 | Cc1cc(OCCCc2c(C(=O)O)n(Cc3cccnc3)c3c(-c4c(COc5ccc(N6CCN([S+](C)(=O)[O-])CC6)cc5)nn(C)c4C)cccc23)cc(C)c1Cl | 92.9% | 112% | 98.3% | 107% | 100% | 104% | 100% | 92.7% | 92.1% | 87% | 71.8% | 86% | 87.7% | 94.8% | 89.8% | 95.6% | 90.8% | 87.7% | 91.5% | 82.4% | 78.5% | 74.9% | 92.4% | 90.5% | 98.1% | 98.4% | 95.8% | 86.1% | 87.7% | 98.2% | 96.7% | 91.2% | 78.6%
6 | COc1ccc(C[C@@H](C)[C@@H](C)Cc2ccc(OC)c(OC)c2)cc1OC | 92.1% | 94.8% | 107% | 112% | 93.5% | 75.5% | 68% | 53.7% | 16.6% | 17.8% | 13.8% | 87.3% | 93.7% | 88.6% | 100% | 86.3% | 85.1% | 74.9% | 71.6% | 8.17% | 6.56% | 5.76% | 84% | 80.2% | 97.4% | 97.6% | 95.3% | 89.6% | 82.4% | 69.2% | 21.4% | 11.1% | 7.7%
7 | C=C(C)[C@@H]1CC[C@]2(C(=O)O)CC[C@]3(C)[C@H](CC[C@@H]4[C@@]5(C)CC[C@H](O)C(C)(C)[C@@H]5CC[C@]43C)[C@@H]12 | 115% | 124% | 107% | 123% | 119% | 110% | 118% | 105% | 102% | 94.6% | 95.7% | 116% | 118% | 121% | 111% | 115% | 111% | 119% | 113% | 111% | 114% | 97.1% |  |  |  |  |  |  |  |  |  |  | 
8 | COC1=NC(=NC(=C1N\C2=N\CCN2)Cl)C | 113% | 94.9% | 90.3% | 93.6% | 111% | 104% | 89.5% | 109% | 82% | 97.6% | 84.8% | 79.1% | 83.8% | 89.1% | 93.1% | 94% | 100% | 84.2% | 91.8% | 92.5% | 86.5% | 90% | 86.2% | 85.8% | 82.8% | 85% | 95.6% | 94% | 91.3% | 86.5% | 80.3% | 89.5% | 85.3%
9 | CC(C)[C@@H](N(CCCN)C(=O)C1=CC=C(C)C=C1)C/2=N/C3=CC(=CC=C3C(=O)N2CC4=CC=CC=C4)Cl | 88.4% | 25.4% | 29.7% | 21.4% | 20.8% | 27.1% | 28% | 24.4% | 20% | 15.8% | 11.4% | 81.9% | 16% | 16.1% | 17.8% | 16.9% | 15.3% | 15.3% | 14.3% | 9.97% | 9.55% | 7.35% | 78.1% | 24% | 24.8% | 21.9% | 22.9% | 24.4% | 18.7% | 15.8% | 11.7% | 16.3% | 11.1%
